Data published in patent US20250177362A1, “HETEROCYCLIC GLP-1 AGONISTS” (Gasherbrum Bio, Inc., priority 2022, published 2025).

The compounds below were run against T1, GLP-1 Receptor (Homo sapiens, UniProt P43220) (assay: GLP-1R agonist cAMP stimulation assay). Conditions: HEK293/CRE-Luc cell line stably expressing the GLP-1 Receptor; 30 min incubation; cAMP dynamic 2 Kit (Cisbio).
T1 construct: host or cells: HEK293/CRE-Luc (HEK293/GLPIR/CRE-LUC)
T1 sequence (P43220 24-463, species assumed): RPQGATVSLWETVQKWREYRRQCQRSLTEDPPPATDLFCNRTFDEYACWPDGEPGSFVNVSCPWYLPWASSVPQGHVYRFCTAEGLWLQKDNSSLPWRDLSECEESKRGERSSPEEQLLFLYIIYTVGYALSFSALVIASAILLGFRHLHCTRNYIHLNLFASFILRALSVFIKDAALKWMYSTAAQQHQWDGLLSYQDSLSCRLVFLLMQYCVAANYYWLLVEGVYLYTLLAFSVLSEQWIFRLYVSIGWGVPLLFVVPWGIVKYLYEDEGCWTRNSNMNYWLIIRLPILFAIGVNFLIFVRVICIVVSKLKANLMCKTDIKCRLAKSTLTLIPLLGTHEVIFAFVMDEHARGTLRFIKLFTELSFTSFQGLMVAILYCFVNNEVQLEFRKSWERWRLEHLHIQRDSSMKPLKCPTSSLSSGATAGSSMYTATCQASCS
Format: cell-based
Procedure: Activation of GLP-1 receptor is known to stimulate cyclic AMP (cAMP) production in cells which indicates primary coupling to the Gas subunit of the G protein heterotrimeric complex.
To optimize functional activity directed toward Gas coupling, a HEK293/CRE-Luc cell line developed by HDB stably expressing the GLP-1 Receptor was used. 200× concentration of compound working solutions were prepared (Agilent Technologies Bravo) with ½ log serial dilution in 384-well Echo LDV plate (Labcyte, Cat #LP-0200). 50 nL/well 200× concentration of compound working solutions were moved to 384-well white low volume plate (Greiner, Cat #784075) using Labcyte ECHO550. 1×10^5 cells/mL HEK293/GLPIR/CRE-LUC (HD Biosciences) cell suspensions prepared with assay buffer [DPBS containing 0.5 mM IBMX (Sigma, Cat #15879) and 0.10% BSA (GENVIEW, Cat #FA016-100g)], 10 μL cell suspensions were added to each well of previous generated assay plate which already contains 50 nL compound at 200× concentration using ThermoFisher Multidrop Combi (1000 cells/well). Seal the plate and incubate at 37° C. with 5% CO2 for 30 min.
After incubation the cAMP assay signal was generated using cAMP dynamic 2 Kit (Cisbio). 5 μL cAMP-d2 working solution was added to each well, followed with 5 μL Anti-cAMP antibody-cryptate working solution added to each well using ThermoFisher Multidrop Combi. Incubate at room temperature for 1 hour protected from light. Read the fluorescence at 665 and 615 nm with Reader PerkinElmer EnVision.
An EC50 of under 1 nM was found for C[C@]1(c2ccc(C(N)=O)cc2F)Oc2cccc(C3CCN(Cc4ncc(-c5nnc(C(F)(F)F)[nH]5)cc4CC4(C#N)CC4)CC3)c2O1 [A-1] in this work.
An EC50 of 1 to 100 nM was found for CC1(c2ccc(C(=O)O)cc2F)Oc2cccc(C3CCN(Cc4ncc(-c5nnc(C(F)(F)F)[nH]5)cc4CC4(C#N)CC4)CC3)c2O1 (centres unmarked) [A-3] in this work.
An EC50 of under 1 nM was found for C[C@]1(c2ccc(Cl)cc2F)Oc2cccc(C3CCC(Cc4ncc(-c5nnc(C(N)=O)[nH]5)cc4CC4(C#N)CC4)CC3)c2O1 (some centres unmarked) [B-1] in this work.
An EC50 of under 1 nM was found for N#CC1(Cc2cc(-c3nc(C(F)(F)F)n[nH]3)cnc2CN2CCC(c3ccc4cnn(Cc5ccc(Cl)cc5F)c4n3)CC2)CC1 [C-1] in this work.
An EC50 of 1 to 100 nM was found for COCCNC(=O)c1cnc(CN2CCC(c3cccc4c3O[C@@](C)(c3ccc(Cl)cc3F)O4)CC2)c(CC2(C#N)CC2)c1 [D-3] in this work.
An EC50 of 1 to 100 nM was found for CNC(=O)c1cnc(CN2CCC(c3cccc4c3O[C@@](C)(c3ccc(Cl)cc3F)O4)CC2)c(CC2(C#N)CC2)c1 [D-4] in this work.
An EC50 of over 100 nM was found for C[C@]1(c2ccc(Cl)cn2)Oc2cccc(C3CCN(Cc4ncc(C(=O)NC5(C#N)CC5)cc4CC4(C#N)CC4)CC3)c2O1 [D-6] in this work.
An EC50 of over 100 nM was found for N#CC1(Cc2cc(C(=O)NC3(C#N)CC3)cnc2CN2CCC(c3ccc(F)c(OCc4ccc(Cl)cc4F)n3)CC2)CC1 [D-7] in this work.
An EC50 of under 1 nM was found for COCCNC(=O)c1nnc(-c2cnc(CN3CCC(c4cccc5c4O[C@@](C)(c4ccc(Cl)cc4F)O5)CC3)c(CC3(C#N)CC3)c2)[nH]1 [E-3] in this work.
An EC50 of under 1 nM was found for CNC(=O)c1nnc(-c2cnc(CN3CCC(c4cccc5c4O[C@@](C)(c4ccc(Cl)cc4F)O5)CC3)c(CC3(C#N)CC3)c2)[nH]1 [E-4] in this work.
An EC50 of under 1 nM was found for C[C@]1(c2ccc(Cl)cc2F)Oc2cccc(C3CCN(Cc4ncc(-c5nnc(C(=O)NC6CC6)[nH]5)cc4CC4(C#N)CC4)CC3)c2O1 [E-5] in this work.
An EC50 of 1 to 100 nM was found for Cc1cc(-c2nnc(-c3cccnc3)[nH]2)cnc1CN1CCC(c2cccc3c2O[C@@](C)(c2ccc(Cl)cc2F)O3)CC1 [E-6] in this work.
An EC50 of 1 to 100 nM was found for Cc1cc(-c2csc(C(=O)O)n2)cnc1CN1CCC(c2cccc3c2OC(C)(c2ccc(Cl)cc2F)O3)CC1 (centres unmarked) [E-7] in this work.
An EC50 of 1 to 100 nM was found for Cc1cc(-c2cc(C(=O)O)n[nH]2)cnc1CN1CCC(c2cccc3c2OC(C)(c2ccc(Cl)cc2F)O3)CC1 (centres unmarked) [E-8] in this work.
An EC50 of 1 to 100 nM was found for Cc1cc(-c2cnc(C(=O)O)s2)cnc1CN1CCC(c2cccc3c2OC(C)(c2ccc(Cl)cc2F)O3)CC1 (centres unmarked) [E-9] in this work.
An EC50 of over 100 nM was found for Cc1cc(-c2nnc(C3CCCOC3)[nH]2)cnc1CN1CCC(c2cccc3c2O[C@@](C)(c2ccc(Cl)cc2F)O3)CC1 (some centres unmarked) [E-10] in this work.
An EC50 of over 100 nM was found for COCCc1cc(-c2nnc(C(=O)O)[nH]2)cnc1CN1CCC(c2cccc3c2O[C@@](C)(c2ccc(Cl)cc2F)O3)CC1 [E-11] in this work.
An EC50 of over 100 nM was found for Cc1cc(-c2noc(-c3cccnc3)n2)cnc1CN1CCC(c2cccc(OCc3ccc(Cl)cc3F)n2)CC1 [E-12] in this work.
An EC50 of over 100 nM was found for Cc1cc(-c2ccncc2)cnc1CN1CCC(c2cccc3c2OC(C)(c2ccc(Cl)cc2F)O3)CC1 (centres unmarked) [E-14] in this work.
An EC50 of over 100 nM was found for Cc1cc(-c2nc(-c3cccnc3)no2)cnc1CN1CCC(c2cccc(OCc3ccc(Cl)cc3F)n2)CC1 [E-15] in this work.
An EC50 of over 100 nM was found for Cc1cc(-c2nnc(-c3cccnc3)s2)cnc1CN1CCC(c2cccc(OCc3ccc(Cl)cc3F)n2)CC1 [E-16] in this work.
An EC50 of over 100 nM was found for Cc1cc(-c2nc(C(=O)O)cs2)cnc1CN1CCC(c2cccc3c2OC(C)(c2ccc(Cl)cc2F)O3)CC1 (centres unmarked) [E-17] in this work.
An EC50 of 1 to 100 nM was found for COCCc1cc(-c2nnc(C(=O)OC)[nH]2)cnc1CN1CCC(c2cccc3c2O[C@@](C)(c2ccc(Cl)cc2F)O3)CC1 [E-18] in this work.
An EC50 of under 1 nM was found for C[C@]1(c2ccc(Cl)cc2F)Oc2cccc(C3CCN(Cc4ncc(-c5nnc(C(=O)O)[nH]5)cc4CC4(C#N)CC4)CC3)c2O1 [E-19] in this work.
An EC50 of under 1 nM was found for C[C@]1(c2ccc(Cl)cc2F)Oc2cccc(C3CCN(Cc4ncc(-c5nnc(C(F)(F)F)[nH]5)cc4N4CCOCC4)CC3)c2O1 [F-1, 4-[2-({4-[(2S)-2-(4-chloro-2-fluorophenyl)-2-methyl-2H-1,3-benzodioxol-4-yl]piperidin-1-yl}methyl)-5-[5-(trifluoromethyl)-4H-1,2,4-triazol-3-yl]pyridin-3-yl]morpholine] in this work.
An EC50 of 1 to 100 nM was found for C[C@]1(c2ccc(Cl)cc2F)Oc2cccc(C3CCN(Cc4ncc(-c5nnc(C(F)(F)F)[nH]5)cc4N4CCOC4=O)CC3)c2O1 [F-2, 3-[2-({4-[(2S)-2-(4-chloro-2-fluorophenyl)-2-methyl-2H-1,3-benzodioxol-4-yl]piperidin-1-yl}methyl)-5-[5-(trifluoromethyl)-4H-1,2,4-triazol-3-yl]pyridin-3-yl]-1,3-oxazolidin-2-one] in this work.
An EC50 of 1 to 100 nM was found for CC1COCCN1c1cc(-c2nnc(C(F)(F)F)[nH]2)nnc1CN1CCC(c2cccc3c2O[C@@](C)(c2ccc(Cl)cc2F)O3)CC1 (stereo partly drawn) [F-3, 4-[3-({4-[(2S)-2-(4-chloro-2-fluorophenyl)-2-methyl-2H-1,3-benzodioxol-4-yl]piperidin-1-yl}methyl)-6-[5-(trifluoromethyl)-4H-1,2,4-triazol-3-yl]pyridazin-4-yl]-3-methylmorpholine] in this work.
An EC50 of 1 to 100 nM was found for COCCNc1cc(-c2nnc(C(F)(F)F)[nH]2)cnc1CN1CCC(c2cccc3c2O[C@@](C)(c2ccc(Cl)cc2F)O3)CC1 [F-4, 2-({4-[(2S)-2-(4-chloro-2-fluorophenyl)-2-methyl-2H-1,3-benzodioxol-4-yl]piperidin-1-yl}methyl)-N-(2-methoxyethyl)-5-[5-(trifluoromethyl)-4H-1,2,4-triazol-3-yl]pyridin-3-amine] in this work.
An EC50 of 1 to 100 nM was found for C[C@]1(c2ccc(Cl)cc2F)Oc2cccc(C3CCN(Cc4ncc(-c5nnc(C(F)(F)F)[nH]5)cc4N4CC5CC4CO5)CC3)c2O1 (stereo partly drawn) [F-5, 5-[2-({4-[(2S)-2-(4-chloro-2-fluorophenyl)-2-methyl-2H-1,3-benzodioxol-4-yl]piperidin-1-yl}methyl)-5-[5-(trifluoromethyl)-4H-1,2,4-triazol-3-yl]pyridin-3-yl]-2-oxa-5-azabicyclo[2.2.1]heptane] in this work.
An EC50 of 1 to 100 nM was found for C[C@]1(c2ccc(Cl)cc2F)Oc2cccc(C3CCN(Cc4ncc(-c5nnc(C(F)(F)F)[nH]5)cc4C4CCOCC4)CC3)c2O1 [F-6, (S)-2-((4-(2-(4-chloro-2-fluorophenyl)-2-methylbenzo[d][1,3]dioxol-4-yl)piperidin-1-yl)methyl)-3-(tetrahydro-2H-pyran-4-yl)-5-(5-(trifluoromethyl)-4H-1,2,4-triazol-3-yl)pyridine] in this work.
An EC50 of 1 to 100 nM was found for C[C@]1(c2ccc(Cl)cc2F)Oc2cccc(C3CCN(Cc4ncc(-c5nnc(C(F)(F)F)[nH]5)cc4N4CCC(O)C4)CC3)c2O1 (stereo partly drawn) [F-7, 1-[2-({4-[(2S)-2-(4-chloro-2-fluorophenyl)-2-methyl-2H-1,3-benzodioxol-4-yl]piperidin-1-yl}methyl)-5-[5-(trifluoromethyl)-4H-1,2,4-triazol-3-yl]pyridin-3-yl]pyrrolidin-3-ol] in this work.
An EC50 of 1 to 100 nM was found for C[C@]1(c2ccc(Cl)cc2F)Oc2cccc(C3CCN(Cc4nnc(-c5nnc(C(F)(F)F)[nH]5)cc4N4CCOC5(CC5)C4)CC3)c2O1 [F-8, (S)-7-(3-((4-(2-(4-chloro-2-fluorophenyl)-2-methylbenzo[d][1,3]dioxol-4-yl)piperidin-1-yl)methyl)-6-(5-(trifluoromethyl)-4H-1,2,4-triazol-3-yl)pyridazin-4-yl)-4-oxa-7-azaspiro[2.5]octane] in this work.
An EC50 of 1 to 100 nM was found for C[C@]1(c2ccc(Cl)cc2F)Oc2cccc(C3CCN(Cc4ncc(-c5nnc(C(F)(F)F)[nH]5)cc4N4CCNC(=O)C4)CC3)c2O1 [F-9] in this work.
An EC50 of 1 to 100 nM was found for C[C@]1(c2ccc(Cl)cc2F)Oc2cccc(C3CCN(Cc4ncc(-c5nnc(C(F)(F)F)[nH]5)cc4C4CCCOC4)CC3)c2O1 (some centres unmarked) [F-10] in this work.
An EC50 of 1 to 100 nM was found for C[C@]1(c2ccc(Cl)cc2F)Oc2cccc(C3CCN(Cc4ncc(-c5nnc(C(F)(F)F)[nH]5)cc4NC4CCCC4)CC3)c2O1 [F-11, (S)-2-((4-(2-(4-chloro-2-fluorophenyl)-2-methylbenzo[d][1,3]dioxol-4-yl)piperidin-1-yl)methyl)-N-cyclopentyl-5-(5-(trifluoromethyl)-4H-1,2,4-triazol-3-yl)pyridin-3-amine] in this work.
An EC50 of 1 to 100 nM was found for CC1(c2ccc(Cl)cc2F)Oc2cccc(C3CCN(Cc4ncc(-c5nnc(C(F)(F)F)[nH]5)cc4OC4CCCC4)CC3)c2O1 (centres unmarked) [F-12, 2-((4-(2-(4-chloro-2-fluorophenyl)-2-methylbenzo[d][1,3]dioxol-4-yl)piperidin-1-yl)methyl)-3-(cyclopentyloxy)-5-(5-(trifluoromethyl)-4H-1,2,4-triazol-3-yl)pyridine] in this work.
An EC50 of 1 to 100 nM was found for CC1(C#N)CCN(c2cc(-c3nnc(C(F)(F)F)[nH]3)cnc2CN2CCC(c3cccc4c3O[C@@](C)(c3ccc(Cl)cc3F)O4)CC2)C1 (stereo partly drawn) [F-13, 1-(2-((4-((S)-2-(4-chloro-2-fluorophenyl)-2-methylbenzo[d][1,3]dioxol-4-yl)piperidin-1-yl)methyl)-5-(5-(trifluoromethyl)-4H-1,2,4-triazol-3-yl)pyridin-3-yl)-3-methylpyrrolidine-3-carbonitrile] in this work.
An EC50 of 1 to 100 nM was found for CC1(c2ccc(Cl)cc2F)Oc2cccc(C3CCN(Cc4ncc(-c5nnn[nH]5)cc4C4CC4)CC3)c2O1 (centres unmarked) [F-14, 2-((4-(2-(4-chloro-2-fluorophenyl)-2-methylbenzo[d][1,3]dioxol-4-yl)piperidin-1-yl)methyl)-3-cyclopropyl-5-(1H-tetrazol-5-yl)pyridine] in this work.
